In patent US20060030585A1, “Tricyclic delta-opioid modulators” (priority 2004, published 2006) one finds Ki data, which are given here for 41 compounds.

Where two headings read alike, the source gives them in different places.

One experiment addresses mu opioid receptor (Rattus norvegicus, UniProt P33535). The experiment in a line: Rat brain mu opioid receptor binding assay ([3H]DAMGO). The conditions noted are these: Rat mu opioid receptor binding constant, rat forebrain membranes, ~0.8 nM [3H]DAMGO. How it is done:
Rat Brain Mu Opioid Receptor Binding Assay
(§1) Procedure: Male, Sprague Dawley rats (150-250 g, VAF, Charles River, Kingston, N.Y.) were killed by CO2, and their brains removed and placed immediately in ice cold Tris HCl buffer (50 mM, pH 7.4). The forebrains were separated from the remainder of the brain by a coronal transection, beginning dorsally at the colliculi and passing ventrally through the midbrain-pontine junction. After dissection, the forebrains were homogenized in Tris buffer in a Teflon®-glass homogenizer. The homogenate was diluted to a concentration of 1 g of forebrain tissue per 80 mL Tris and centrifuged at 39,000×g for 10 min. The pellet was resuspended in the same volume of Tris buffer containing 5 mM MgCl2 with several brief pulses from a Polytron homogenizer. This particulate preparation was used for the delta opioid binding assays.
Analysis: The data from the scintillation counter were used to calculate either the % inhibition compared to control binding (when only a single concentration of test compound was evaluated) or a Ki value (when a range of concentrations tested). Percent inhibition was calculated as: [(total dpm-test compound dpm)/(total dpm-nonspecific dpm)]*100. Kd and Ki values were calculated using GraphPad PRISM data analysis program.

In a further experiment the target is delta opioid receptor (Rattus norvegicus, UniProt P33533). The experiment in a line: Rat brain delta opioid receptor binding assay ([3H]DPDPE). The conditions noted are these: Rat delta opioid receptor binding constant, rat forebrain membranes, ~4 nM [3H]DPDPE. The procedure: Rat Brain Delta Opioid Receptor Binding Assay
Sequence of delta opioid receptor (P33533 whole entry): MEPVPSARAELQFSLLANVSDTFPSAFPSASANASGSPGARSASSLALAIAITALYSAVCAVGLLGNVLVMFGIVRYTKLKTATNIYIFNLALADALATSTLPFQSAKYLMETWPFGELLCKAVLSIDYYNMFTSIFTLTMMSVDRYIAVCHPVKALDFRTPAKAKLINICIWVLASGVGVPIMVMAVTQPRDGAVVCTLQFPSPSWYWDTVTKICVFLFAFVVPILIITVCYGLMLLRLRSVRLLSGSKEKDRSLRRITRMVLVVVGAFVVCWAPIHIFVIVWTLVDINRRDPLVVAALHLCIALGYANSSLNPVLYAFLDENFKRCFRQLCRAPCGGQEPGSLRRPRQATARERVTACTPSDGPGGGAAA
as §1, with “assays. Following incubation with the delta selective peptide ligand ˜4 nM [^3H]DPDPE at 25° C. for 2.5 h in a 96-well plate with total volume of 1 mL, the plate contents were filtered through Wallac filtermat B sheets on a Tomtec 96-well harvester. The filters were rinsed three times with 2 mL of 10 mM HEPES (pH 7.4), and dried in a 650 W microwave oven for 1.75 min twice. To each sample area 2×50 μL of Betaplate Scint scintillation fluid (LKB) was added and the radioactivity quantified on a LKB (Wallac) 1205 BetaPlate liquid scintillation counter.” for “assays.”
Analysis: The data from the scintillation counter were used to calculate either the % inhibition compared to control binding (when only a single concentration of test compound was evaluated) or a Ki value (when a range of concentrations was tested). Percent inhibition was calculated as: [(total dpm-test compound dpm)/(total dpm-nonspecific dpm)]*100. Kd and Ki values were calculated using GraphPad PRISM data analysis program.

Sequence of mu opioid receptor (P33535 whole entry): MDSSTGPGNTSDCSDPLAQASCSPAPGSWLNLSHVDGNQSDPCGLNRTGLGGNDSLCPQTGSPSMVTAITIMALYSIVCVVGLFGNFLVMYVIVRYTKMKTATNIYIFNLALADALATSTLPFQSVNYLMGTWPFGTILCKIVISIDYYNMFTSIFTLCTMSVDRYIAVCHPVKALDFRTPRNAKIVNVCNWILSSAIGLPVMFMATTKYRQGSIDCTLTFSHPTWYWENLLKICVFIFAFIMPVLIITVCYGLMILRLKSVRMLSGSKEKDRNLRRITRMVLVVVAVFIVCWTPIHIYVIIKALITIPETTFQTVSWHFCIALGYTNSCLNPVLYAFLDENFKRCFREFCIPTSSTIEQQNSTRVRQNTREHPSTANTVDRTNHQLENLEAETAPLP

Take `COc1cccc2c1Oc1cc(-c3ccsc3)ccc1C2=C1CC2CCC(C1)N2` [Cpd 106]: the inhibition constant Ki (in general, a dissociation constant, usually derived from enzyme kinetics or from competition with a known ligand) on mu opioid receptor (read-out: MOR Ki) came out at 2.74 µM; on delta opioid receptor (read-out: DOR Ki), 0.281 µM.

Consider `c1ccc2c(c1)Oc1cc(C3=NCCCN3)ccc1C2=C1CC2CCC(C1)N2` [Cpd 41], for which the Ki on mu opioid receptor (MOR Ki) was 0.875 µM; on delta opioid receptor (DOR Ki), 0.464 µM.

Take `O=c1[nH]c(-c2ccc3c(c2)Oc2c(O)cccc2C3=C2CC3CCC(C2)N3)no1` [Cpd 134, 3-[9-(8-Aza-bicyclo[3.2.1]oct-3-ylidene)-5-hydroxy-9H-xanthen-3-yl]-4H-[1,2,4]oxadiazol-5-one]: the Ki was 0.002 µM on mu opioid receptor (MOR Ki) and 0.00012 µM on delta opioid receptor (DOR Ki).

As for `COC[C@H](Cc1ccccc1)NC(=O)c1ccc2c(c1)Oc1ccccc1C2=C1CC2CCC(C1)N2` [Cpd 31], the Ki at mu opioid receptor (read-out: MOR Ki) was found to be 0.66 µM; at delta opioid receptor (read-out: DOR Ki) it was 0.142 µM.

As for `O=C(NC1CCCC1)c1ccc2c(c1)Oc1ccccc1C2=C1CC2CCC(C1)N2` [Cpd 45], the Ki at mu opioid receptor (MOR Ki) was determined as 3.1 µM; at delta opioid receptor (DOR Ki), 0.673 µM.

With `c1ccc2c(c1)Oc1cc(-c3ccsc3)ccc1C2=C1CC2CCC(C1)N2` [Cpd 55], the inhibition constant (Ki) stood at 9.28 µM on mu opioid receptor (MOR Ki) and 4.72 µM on delta opioid receptor (DOR Ki).

For the compound `CC(=O)Nc1ccccc1-c1ccc2c(c1)Sc1ccccc1C2=C1CC2CCC(C1)N2Cc1ccoc1` [Cpd 120], the Ki worked out at 0.183 µM on mu opioid receptor (read-out: MOR Ki) and 0.054 µM at delta opioid receptor (DOR Ki).

In the case of `Brc1ccc2c(c1)Sc1ccccc1C2=C1CC2CCC(C1)N2` [Cpd 84, 3-(3-Bromo-thioxanthen-9-ylidene)-8-aza-bicyclo[3.2.1]octane], the inhibition constant (Ki) is greater than 10 µM on mu opioid receptor (MOR Ki) and 2.9 µM on delta opioid receptor (DOR Ki).

For the compound `N=C(c1ccc2c(c1)Oc1ccccc1C2=C1CC2CCC(C1)N2)N1CCOCC1` [Cpd 50], the Ki at mu opioid receptor (MOR Ki) is 14.9 µM; at delta opioid receptor (DOR Ki), 1.76 µM.

With `COc1cccc(C2CCCN(C(=O)c3ccc4c(c3)Oc3ccccc3C4=C3CC4CCC(C3)N4)C2)c1` (stereo not shown) [Cpd 65], the figures for the inhibition constant (Ki) at mu opioid receptor (MOR Ki) and at delta opioid receptor (DOR Ki) were 0.317 µM and 0.088 µM, respectively.

For `COC(=O)c1ccc2c(c1)Oc1ccccc1C2=C1CC2CCC(C1)N2` [Cpd 73], the values for the inhibition constant Ki at mu opioid receptor (read-out: MOR Ki) and at delta opioid receptor (read-out: DOR Ki) were 6.34 µM and 1.01 µM, respectively.

Take `Cn1ccc(-c2ccc3c(c2)Oc2ccccc2C3=C2CC3CCC(C2)N3)n1` [Cpd 111]: the inhibitory constant (Ki) turned out to be 2.64 µM on mu opioid receptor (MOR Ki) and 0.22 µM on delta opioid receptor (DOR Ki).

On to `O=C(c1ccc2c(c1)Oc1ccccc1C2=C1CC2CCC(C1)N2)N1CCC(O)C1` (single isomer, unassigned) [Cpd 69], for which the Ki at mu opioid receptor (MOR Ki) came to 2.06 µM; at delta opioid receptor (DOR Ki), 0.105 µM.

With `Fc1cccc(-c2ccc3c(c2)Oc2ccccc2C3=C2CC3CCC(C2)N3)c1` [Cpd 51], the Ki at mu opioid receptor (MOR Ki) was 16.5 µM; at delta opioid receptor (DOR Ki) it was 2.44 µM.

Take `CS(=O)(=O)Nc1cccc(-c2ccc3c(c2)Oc2ccccc2C3=C2CC3CCC(C2)N3)c1` [Cpd 63]: the inhibition constant Ki was determined as 5.12 µM on mu opioid receptor (MOR Ki) and 0.161 µM on delta opioid receptor (DOR Ki).

Consider `O=C(N1C2CCC1CC(=C1c3ccccc3Oc3cc(-c4cccnc4)ccc31)C2)C(F)(F)F` [Cpd 129], for which the inhibitory constant (Ki) at mu opioid receptor (read-out: MOR Ki) and on delta opioid receptor (read-out: DOR Ki) was greater than 10 µM throughout.

In the case of `O=C(c1ccc2c(c1)Oc1ccccc1C2=C1CC2CCC(C1)N2)N1CCC(O)C1` (single isomer, unassigned) [Cpd 127], the inhibition constant Ki came to 0.907 µM on mu opioid receptor (MOR Ki) and 0.191 µM at delta opioid receptor (DOR Ki).

Turning to `CN(Cc1ccccc1)C(=O)c1ccc2c(c1)Oc1ccccc1C2=C1CC2CCC(C1)N2` [Cpd 52], the Ki turned out to be 1.83 µM on mu opioid receptor (MOR Ki) and 2.73 µM on delta opioid receptor (DOR Ki).

As for `CN(C)CCN(C)C(=O)c1ccc2c(c1)Oc1ccccc1C2=C1CC2CCC(C1)N2` [Cpd 56], the Ki on mu opioid receptor (MOR Ki) was 28.5 µM; at delta opioid receptor (DOR Ki), 4.93 µM.

In the case of `CC(C)(C)OC(=O)N1C2CCC1CC(=C1c3ccccc3Oc3cc(C(=O)NCCO)ccc31)C2` [Cpd 122], the inhibitory constant (Ki) at mu opioid receptor (read-out: MOR Ki) and on delta opioid receptor (read-out: DOR Ki) was greater than 10 µM each time.

Turning to `O=C(NCC(F)(F)F)c1ccc2c(c1)Oc1ccccc1C2=C1CC2CCC(C1)N2` [Cpd 64], the inhibition constant Ki at mu opioid receptor (MOR Ki) is 0.411 µM; on delta opioid receptor (DOR Ki), 0.052 µM.

In the case of `CC(C)C[C@H](CO)NC(=O)c1ccc2c(c1)Oc1ccccc1C2=C1CC2CCC(C1)N2` [Cpd 67], the Ki was determined as 1.57 µM at mu opioid receptor (MOR Ki) and 0.36 µM on delta opioid receptor (DOR Ki).

Consider `O=C(NCCc1ccccc1)c1ccc2c(c1)Oc1ccccc1C2=C1CC2CCC(C1)N2` [Cpd 19], for which the Ki was 0.438 µM at mu opioid receptor (MOR Ki) and 0.045 µM at delta opioid receptor (DOR Ki).

Take `COc1cccc2c1Oc1cc(-c3noc(=S)[nH]3)ccc1C2=C1CC2CCC(C1)N2` [Cpd 133, 3-[9-(8-Aza-bicyclo[3.2.1]oct-3-ylidene)-5-methoxy-9H-xanthen-3-yl]-4H-[1,2,4]oxadiazole-5-thione]: the Ki was 0.371 µM at mu opioid receptor (MOR Ki) and 0.00237 µM at delta opioid receptor (DOR Ki).

As to `O=C(Nc1ccccc1)c1ccc2c(c1)Oc1ccccc1C2=C1CC2CCC(C1)N2` [Cpd 47], the Ki at mu opioid receptor (MOR Ki) came to 1.2 µM; on delta opioid receptor (DOR Ki) it was 0.813 µM.

For `COc1cccc2c1Oc1cc(-c3noc(=O)[nH]3)ccc1C2=C1CC2CCC(C1)N2` [Cpd 132, 3-[9-(8-Aza-bicyclo[3.2.1]oct-3-ylidene)-5-methoxy-9H-xanthen-3-yl]-4H-[1,2,4]oxadiazol-5-one], the inhibition constant (Ki) at mu opioid receptor (MOR Ki) worked out at 0.254 µM; on delta opioid receptor (DOR Ki) it was 0.00032 µM.

Regarding `CC(=O)Nc1ccc(-c2ccc3c(c2)Oc2ccccc2C3=C2CC3CCC(C2)N3)cc1` [Cpd 30], the Ki on mu opioid receptor (MOR Ki) worked out at 2.74 µM; on delta opioid receptor (DOR Ki) it was 0.139 µM.

`CN(C(=O)c1ccc2c(c1)Oc1ccccc1C2=C1CC2CCC(C1)N2)C1CCCCC1` [Cpd 22]: the figures for the inhibitory constant (Ki) on mu opioid receptor (MOR Ki) and on delta opioid receptor (DOR Ki) were 1.12 µM and 0.0549 µM, respectively.

For `N#Cc1ccc2c(c1)Oc1ccccc1C2=C1CC2CCC(C1)N2` [Cpd 77], the figures for the Ki on mu opioid receptor (read-out: MOR Ki) and on delta opioid receptor (read-out: DOR Ki) were 2.48 µM and 2.71 µM, respectively.

For `CC(=O)Nc1ccccc1-c1ccc2c(c1)Oc1ccccc1C2=C1CC2CCC(C1)N2C(=O)C(F)(F)F` [Cpd 130], the Ki at mu opioid receptor (read-out: MOR Ki) and at delta opioid receptor (read-out: DOR Ki) was greater than 10 µM throughout.

Consider `CN(CCO)C(=O)c1ccc2c(c1)Oc1ccccc1C2=C1CC2CCC(C1)N2` [Cpd 61, 9-(8-Aza-bicyclo[3.2.1]oct-3-ylidene)-9H-xanthene-3-carboxylic acid (2-hydroxy-ethyl)-methyl-amide], for which the Ki came out at 0.876 µM on mu opioid receptor (MOR Ki) and 0.00625 µM at delta opioid receptor (DOR Ki).

Regarding `COc1cccc2c1Oc1cc(-c3cnc4ccccc4c3)ccc1C2=C1CC2CCC(C1)N2` [Cpd 104], the inhibition constant Ki is 1.71 µM at mu opioid receptor (read-out: MOR Ki) and 0.246 µM at delta opioid receptor (read-out: DOR Ki).

On to `CC(=O)Nc1ccccc1-c1ccc2c(c1)Sc1ccccc1C2=C1CC2CCC(C1)N2` [Cpd 113], for which the figures for the inhibition constant Ki on mu opioid receptor (MOR Ki) and on delta opioid receptor (DOR Ki) were 1.52 µM and 0.09 µM, respectively.

With `c1ccc2c(c1)Oc1cc(-c3ccncc3)ccc1C2=C1CC2CCC(C1)N2` [Cpd 29], the Ki at mu opioid receptor (MOR Ki) was found to be 1.82 µM; on delta opioid receptor (DOR Ki), 0.133 µM.

As for `COC(=O)c1ccc2c(c1)Sc1ccccc1C2=C1CC2CCC(C1)N2` [Cpd 76], the inhibitory constant (Ki) at mu opioid receptor (read-out: MOR Ki) turned out to be 4.74 µM; at delta opioid receptor (read-out: DOR Ki) it was 0.37 µM.

As for `CN1C2CCC1CC(=C1c3ccccc3Sc3cc(-c4cccnc4)ccc31)C2` [Cpd 114], the results for the Ki on mu opioid receptor (MOR Ki) and on delta opioid receptor (DOR Ki) were 0.109 µM and 0.108 µM, respectively.

For `CC(C)NC(=N)c1ccc2c(c1)Oc1ccccc1C2=C1CC2CCC(C1)N2` [Cpd 39], the Ki on mu opioid receptor (MOR Ki) stood at 5.17 µM; on delta opioid receptor (DOR Ki), 0.441 µM.

Turning to `c1ccc2c(c1)Sc1cc(-c3nnn[nH]3)ccc1C2=C1C[C@H]2CC[C@@H](C1)N2` (single isomer, unassigned) [Cpd 102, (1RS,5SR)-3-[3-(1H-Tetrazol-5-yl)-thioxanthen-9-ylidene]-8-aza-bicyclo[3.2.1]octane], the inhibition constant Ki was 2.77 µM on mu opioid receptor (MOR Ki) and 0.054 µM at delta opioid receptor (DOR Ki).

For the compound `CN(C)C(=O)CN(C)C(=O)c1ccc2c(c1)Oc1ccccc1C2=C1CC2CCC(C1)N2` [Cpd 68], the Ki amounted to 2.39 µM at mu opioid receptor (read-out: MOR Ki) and 0.0085 µM on delta opioid receptor (read-out: DOR Ki).

Regarding `CCc1cnc(-c2ccc3c(c2)Oc2ccccc2C3=C2CC3CCC(C2)N3)[nH]1` [Cpd 26, 3-[3-(5-Ethyl-1 H-imidazol-2-yl)-xanthen-9-ylidene]-8-aza-bicyclo[3.2.1]-octane], the figures for the Ki on mu opioid receptor (MOR Ki) and at delta opioid receptor (DOR Ki) were 0.249 µM and 0.081 µM, respectively.

For `N=C(c1ccc2c(c1)Oc1ccccc1C2=C1CC2CCC(C1)N2)N1CCCCC1` [Cpd 43], the results for the Ki at mu opioid receptor (MOR Ki) and on delta opioid receptor (DOR Ki) were 5.34 µM and 0.496 µM, respectively.
